Assay results from patent US11364247B2, “Methods of treatment of partial onset seizures using eslicarbazepine acetate” (BIAL-PORTELA & CA S.A., priority 2005, dated 2022).
Blank lines part the entries; values can stand above or below the molecule they belong to.

Assays:
[1] = Metabolic profile in liver microsomes, chiral analysis; format: in vitro ADME; conditions: liver microsomes from rats, dogs, monkeys and humans, not the R(−) form
[2] = test system: refractory partial epilepsy (partial-onset seizures); assay: Study in epileptic patients: efficacy as adjunctive therapy; format: in vivo, human; conditions: once-daily group compared with the other groups
Description: This clinical trial was a double-blind, randomized, placebo-controlled study performed by 20 centers in Croatia, Czech Republic, Germany, Lithuania and Poland. The stated objectives of the study were to assess the efficacy and safety of BIA 2-093 as adjunctive therapy in patients with refractory partial epilepsy. […] For the first 4 weeks, daily dose was 400 mg. Then, daily doses were increased to 800 mg (weeks 5-8), and finally to 1200 mg (weeks 9-12). Tablets with strengths of 200 mg, 400 mg, and 600 mg eslicarbazepine acetate and placebo tablets were manufactured by […] do Coronado, Portugal) in accordance with Good Manufacturing Practice. […] See, […] and Almeida II. The proportion of patients with a 50% or greater reduction in seizure frequency in the treatment period compared to the baseline period in the intention-to-treat (ITT) population (n=143) was the primary efficacy endpoint. […] The proportion of responders in the once-daily group (54%) was also higher than in the twice-daily (41%) group. […] At this dose level, no significant difference was found between the twice-daily and the placebo groups. Secondary endpoints include the reduction in total seizure frequency, proportion of seizure-free patients, distribution of responders, comparison of once and twice daily regimens, and investigator's and patient's global evaluation.

[3] = test system: voltage-gated sodium channel (VGSC); conditions: compared with carbamazepine; cited from earlier work
[4] = Study in epileptic patients: trough plasma concentrations of BIA 2-005; format: in vivo, human
Text: This clinical trial was a double-blind, randomized, placebo-controlled study performed by 20 centers in Croatia, Czech Republic, Germany, Lithuania and Poland. The stated objectives of the study were to assess the efficacy and safety of BIA 2-093 as adjunctive therapy in patients with refractory partial epilepsy. In total, 143 patients aged 18-65 years with at least 4 partial-onset seizures per month in spite of treatment with 1 or 2 antiepileptic drugs (AEDs) (e.g., phenytoin, valproate, primidone, phenobarbital, lamotrigine, gabapentin, topiramate or clonazepam) were randomly assigned to one of three groups: treatment with placebo (n=47), BIA 2-093 once-daily (n=50), or BIA 2-093 twice-daily (n=46), during 12 weeks (plus 1 week of tapering off). For the first 4 weeks, daily dose was 400 mg. Then, daily doses were increased to 800 mg (weeks 5-8), and finally to 1200 mg (weeks 9-12). Tablets with strengths of 200 mg, 400 mg, and 600 mg eslicarbazepine acetate and placebo tablets were manufactured by BIAL (S. Mamede do Coronado, Portugal) in accordance with Good Manufacturing Practice. The assay plasma to determine the concentration of BIA 2-005 was performed with a non-chiral method using isocratic liquid chromatography (LC) with single quadrupole mass spectrometric detection (MS), as described herein. See, e.g., Almeida I and Almeida II.
Plasma/serum samples for the “trough” (pre-dose) levels of BIA 2-005 and concomitant AEDs were collected at all visits but V5 (post-study visit). The objective was to characterize the influence of eslicarbazepine acetate on the pharmacokinetic behavior of the concomitant AEDs (e.g., phenytoin, valproate, primidone, phenobarbital, lamotrigine, gabapentin, topiramate, and clonazepam).

[5] = Entry-into-man studies in healthy subjects (Almeida I, Almeida II), plasma and urine pharmacokinetics; format: in vivo, human
Text: Studies in humans have shown that, after oral administration, eslicarbazepine acetate appears to be rapidly and extensively metabolized to the active metabolite eslicarbazepine and, in a minor extent, to R-licarbazepine. See Silveira et al., “BIA 2-093 Pharmacokinetics in Healthy Elderly Subjects,” Epilepsia, 45 (suppl. 3), 157 (2004). […] See Almeida I; Almeida, L. & Soares-da-Silva, P., “Safety, Tolerability and Pharmacokinetic Profile of BIA 2-093, a Novel Putative Antiepileptic Agent, during First Administration to Humans,” Drugs R&D, 4, 269-284 (2003) (herein referred to as “Almeida II”).
The inventors performed entry-into-man studies in healthy subjects, the results of which they described in the Almeida I and Almeida II articles, both of which are hereby incorporated by reference. In these studies, the healthy subjects received a single oral dose of eslicarbazepine acetate wherein the dose ranged from 20 mg to 1200 mg (see Almeida II), and multiple daily-doses of eslicarbazepine acetate ranging from 200 mg twice-daily to 1200 mg once-daily (see Almeida I). Further studies (not yet published) by the inventors have investigated higher doses of eslicarbazepine acetate, including, for example, doses ranging up to 2400 mg once-daily.

[6] = Trial A: steady-state pharmacokinetics of once-daily and twice-daily regimens in healthy volunteers; format: in vivo, human; conditions: arithmetic mean; for AUC0-t / AUC0-∞ / Cmax / t1/2 / tmax: after last dose (8 days)
Description: This human pharmacology trial was a study to investigate the steady-state pharmacokinetics of once-daily and twice-daily regimens of eslicarbazepine acetate in healthy subjects. The study was a single center, open-label, randomized, two-way crossover study in 12 healthy volunteers (6 males and 6 females) that consisted of two 8-day treatment periods separated by a washout period of 10-15 days. […] Tablets with a strength of 450 mg of eslicarbazepine acetate, manufactured by BIAL (S. Mamede do Coronado, Portugal) in accordance with Good Manufacturing Practice, were used.
Blood samples for drug plasma assays were taken at the following times: […]
Blood samples were drawn either by direct venipuncture or via an intravenous catheter into lithium heparin tubes and centrifuged at approximately 1500 g for 10 minutes at 4° C. The resulting plasma was separated into 2 equal aliquots of 1 mL and stored at −20° C. until required for analysis.
Plasma concentrations of eslicarbazepine acetate, eslicarbazepine, and R-licarbazepine were determined using isocratic liquid chromatography (LC) with single quadrupole mass spectrometric detection (MS).
The method involved the addition of 500 μL of approximately 0.5 μg/mL of 10,11-dihydrocarbamazepine (internal standard prepared in acetonitrile:water, 3:97, v:v) to 250 μL of plasma (centrifuged at 1800 rpm, prior to analysis) in a polypropylene tube. After vortex mixing for 10 seconds, the mixture was transferred to a Schleicher and Schuell C18/100 mg 96 well solid phase extraction plate. Each well was preconditioned with 800 μL methanol, followed by 800 μL acetonitrile and 800 μL acetonitrile:water (3:97, v:v) prior to application of the total sample volume. Each polypropylene tube was then washed with 500 μL acetonitrile:water (3:97, v:v) and the washings transferred to the respective well. The compounds were eluted into a collection plate with 750 μL acetonitrile and the extract evaporated to dryness under oxygen-free nitrogen, at 40° C. All solid phase extraction manipulations were undertaken using the Tomtec QUADRA 96® Model 320 system and a vacuum was applied at each elution step. The final extract was reconstituted in 100 μL of water:methanol (90:10, v:v) and mixed. The collection plate was then centrifuged at approximately 3000 rpm (at approximately 4° C., for approximately 10 minutes) prior to analysis. An aliquot of the final extract (10 μL) was injected onto the LC-MS system.
The LC-MS system used in the analysis consisted of a Perkin Elmer series 200 micro pump, a Perkin Elmer series 200 autosampler, and a Perkin Elmer/Sciex API 150EX single quadrupole mass spectrometer fitted with a Turbo IonSpray® source. Separation was achieved using a LichroCART 250-4 ChiraDex column (β-cyclodextrin, 5 μm), a LichroCART 4-4 ChiraDex column guard column (β-cyclodextrin, 5 μm), a Jones Chromatography 7971 column heater at 50° C., a mobile phase A (0.2 mM sodium acetate, aq) and a mobile phase B (0.2 mM sodium acetate, MeOH). The MS detector was operated in positive ion mode with mass transitions for BIA 2-093, eslicarbazepine, R-licarbazepine, and the internal standard of 319.16 amu (200 ms), 277.08 amu (200 ms), 277.08 amu (200 ms) and 261.05 amu (200 ms), respectively. The limit of quantification of the assay was 10 ng/mL for eslicarbazepine acetate and 100 ng/mL for eslicarbazepine and R-licarbazepine.
Eslicarbazepine acetate, (S)-(−)-10-acetoxy-10,11-dihydro-5H-dibenz/b,f/azepine-5-carboxamide; eslicarbazepine, (S)-(+)-10,11-dihydro-10-hydroxy-5H dibenz/b,f/azepine-5-carboxamide; and R-licarbazepine, (R)-(−)-10,11-dihydro-10-hydroxy-5H dibenz/b,f/azepine-5-carboxamide, were synthesized in the Laboratory of Chemistry, BIAL, with purities>99.5%. The internal standard, 10,11-dihydrocarbamazepine was supplied by Sigma-Aldrich (St. Louis, Mo.).
The pharmacokinetic parameters were derived from non-compartmental analysis using WinNonlin (Version 4.0, Pharsight Corporation, Mountain View, Calif.). […]

[7] = Trial B: pharmacokinetics following single doses in healthy young male subjects; format: in vivo, human
Description: (§1) This human pharmacology trial was a study to determine the pharmacokinetics of eslicarbazepine acetate following single and repeated doses. The study integrated the results of three double-blind, randomized, placebo-controlled trials. To measure the pharmacokinetics of eslicarbazepine acetate following single doses, oral single doses of eslicarbazepine acetate ranging from 20 mg to 2400 mg were administered to healthy young male subjects (6 subjects per dose). The pharmacokinetics of eslicarbazepine acetate following repeated doses were measured by administering repeated oral doses ranging from 400 mg to 2400 mg of eslicarbazepine acetate to healthy young male subjects (6 subjects per dose) over a period of 8 days. Analytical test methods and experimental procedures were similar to those described for Trial A above.

[8] = Trial B: pharmacokinetics following repeated once-daily doses over 8 days in healthy young male subjects; format: in vivo, human; conditions: for tmax: male, human, plasma, oral, read-out: Median tmax
Description: as §1

[9] = multiple oral dose of 900 mg eslicarbazepine acetate once-daily
[10] = multiple oral dose of 900 mg eslicarbazepine acetate twice-daily
[11] = single oral dose of 1200 mg eslicarbazepine acetate

Compound: CC(=O)O[C@H]1Cc2ccccc2N(C(N)=O)c2ccccc21 [eslicarbazepine acetate, (S)-(−)-10-acetoxy-10,11-dihydro-5H-dibenz/b,f/azepine-5-carboxamide]
- metabolite formed [1]: S(+) enantiomer of licarbazepine
- assessment of efficacy by the investigator (CGI) and of acceptability by patient [2]: rated best
- affinity for the resting state of the sodium channel, lower than that of carbamazepine [3]: about 3 fold

- trough plasma concentration, mean (sd) ([4]; 400 mg/day eslicarbazepine acetate, b.i.d. group): 4.9 (2.3) μg/mL
- trough plasma concentration, mean (sd) ([4]; 400 mg/day eslicarbazepine acetate, o.d. group): 4.0 (3.2) μg/mL
- trough plasma concentration, mean (sd) ([4]; 800 mg/day eslicarbazepine acetate, b.i.d. group): 13.5 (9.6) μg/mL
- trough plasma concentration, mean (sd) ([4]; 800 mg/day eslicarbazepine acetate, o.d. group): 10.7 (7.0) μg/mL
- trough plasma concentration, mean (sd) ([4]; 1200 mg/day eslicarbazepine acetate, b.i.d. group): 15.5 (8.8) μg/mL
- trough plasma concentration, mean (sd) ([4]; 1200 mg/day eslicarbazepine acetate, o.d. group): 14.6 (8.8) μg/mL
- mean renal clearance from plasma ([5]; BIA 2-005, healthy subjects): 20 to 30 mL/min
- extent of systemic exposure ([5]; BIA 2-005 after oral eslicarbazepine acetate, healthy subjects): approximately dose-proportional
Compound: NC(=O)N1c2ccccc2CC(O)c2ccccc21 (stereo not drawn) [BIA 2-005]

- AUC0-t [6, 9]: 19,600 ng · h/mL
- AUC0-∞ [6, 9]: 23989 ng·h/mL
- Cmax [6, 9]: 674 ng/mL
- t1/2 [6, 9]: 15.0 h
- tmax [6, 9]: 9.42 h
- AUC0-τ ([6]; multiple oral dose of 900 mg eslicarbazepine acetate once-daily, dosing interval 24 hours): 13397 ng·h/mL
- AUC0-t [6, 10]: 19,661 ng · h/mL
- AUC0-∞ [6, 10]: 23807 ng·h/mL
- Cmax [6, 10]: 718 ng/mL
- t1/2 [6, 10]: 14.8 h
- tmax [6, 10]: 6.40 h
- AUC0-τ ([6]; multiple oral dose of 900 mg eslicarbazepine acetate twice-daily, dosing interval 12 hours): 7783 ng·h/mL
Compound: NC(=O)N1c2ccccc2C[C@@H](O)c2ccccc21 [R-licarbazepine, (R)-(−)-10,11-dihydro-10-hydroxy-5H dibenz/b,f/azepine-5-carboxamide]

- AUC0-t ([7]; male, human, plasma, single oral dose of 2400 mg eslicarbazepine acetate, read-out: Mean AUC0-24 h): 446000 ng·h/mL
- Mean apparent t1/2 ([7]; single oral dose of 20 mg eslicarbazepine acetate): 9.1 h
- Median tmax ([7]; single oral dose of 400 mg eslicarbazepine acetate): 4 h
- Median tmax ([7]; single oral dose of 600 mg eslicarbazepine acetate): 4 h
- Mean AUC0-24 h [7, 11]: 285,700 ng · h/mL
- Median tmax [7, 11]: 4 h
- Mean apparent t1/2 ([7]; single oral dose of 2400 mg eslicarbazepine acetate): 11.1 h
- Mean Cmax ([8]; last dose of 8-day repeated 800 mg o.d. eslicarbazepine acetate): 18,700 ng/mL
- tmax ([8]; last dose of 8-day repeated 1800 mg o.d. eslicarbazepine acetate): 2 h
- tmax ([8]; last dose of 8-day repeated 2400 mg o.d. eslicarbazepine acetate): 2 h
Compound: NC(=O)N1c2ccccc2C[C@H](O)c2ccccc21 [eslicarbazepine, (S)-(+)-10,11-dihydro-10-hydroxy-5H dibenz/b,f/azepine-5-carboxamide]
